Target: T1, Therminator II DNA polymerase (Thermococcus sp., UniProt Q56366, A485L/D141A/E143A/Y409V)
T1 construct: purchased New England Biolabs, Inc. (printed for the ThermoPol II buffer; inferred for the enzyme)
Assay: Extension of DNA primer with MRT by polymerase (MALDI-TOF MS readout)
Format: biochemical
Method: The reaction was consisted of 20 cycles at 94° C. for 20 sec, 46° C. for 40 sec, and 60° C. for 90 sec. After the reaction, the mixture was incubated with strepatavidin-coated magnetic beads ([…], Dynabead MyOne, Invitrogen) in PBS buffer ([…]) at room temperature for 30 min.
After removing a fluorescent group from the 3′-end as the same manner as described in Example 4, the obtained DNA was purified by reverse-phased HPLC. The purified DNA was used as a primer for the second extension reaction with the MRT. The extension was performed by the same manner as described in Example 2. The resultant product was characterized using MALDI-TOF mass spectrometry (FIG. 3d).

T1 sequence (Q56366 whole entry D141A/E143A/Y409V/A485L): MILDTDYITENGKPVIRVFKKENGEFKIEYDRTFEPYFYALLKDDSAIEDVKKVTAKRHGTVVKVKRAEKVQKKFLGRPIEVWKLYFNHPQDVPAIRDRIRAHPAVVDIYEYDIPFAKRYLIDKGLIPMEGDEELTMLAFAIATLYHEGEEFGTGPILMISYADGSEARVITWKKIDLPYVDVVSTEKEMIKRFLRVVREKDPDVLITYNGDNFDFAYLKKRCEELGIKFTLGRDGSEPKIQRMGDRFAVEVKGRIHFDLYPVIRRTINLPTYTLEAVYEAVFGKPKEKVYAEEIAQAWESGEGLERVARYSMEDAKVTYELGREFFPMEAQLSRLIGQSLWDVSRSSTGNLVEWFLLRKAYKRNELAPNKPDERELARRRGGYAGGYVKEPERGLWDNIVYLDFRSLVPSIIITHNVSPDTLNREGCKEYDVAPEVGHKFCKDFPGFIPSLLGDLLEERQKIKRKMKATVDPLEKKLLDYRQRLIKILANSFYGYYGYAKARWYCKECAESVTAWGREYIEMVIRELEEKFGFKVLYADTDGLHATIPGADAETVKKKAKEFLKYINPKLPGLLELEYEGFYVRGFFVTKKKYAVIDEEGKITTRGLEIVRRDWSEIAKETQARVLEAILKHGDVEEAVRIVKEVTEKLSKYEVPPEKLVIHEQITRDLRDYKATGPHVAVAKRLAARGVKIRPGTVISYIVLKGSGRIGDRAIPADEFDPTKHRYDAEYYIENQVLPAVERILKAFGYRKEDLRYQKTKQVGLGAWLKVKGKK

3′-O-(7-hydroxycoumarin)-dTTP [Compound 13]
primer extension by MRT (biotinylated primer/template, 4 units Therminator II DNA polymerase, 20 cycles): the primer was extended by MRT | second primer extension by MRT after label elimination (deprotected, HPLC-purified extended primer used as primer, Therminator II DNA polymerase): the primer chain could be extended again by another MRT
